These results are taken from patent US11046680B1, “Heteroaryl-substituted triazoles as APJ receptor agonists” (priority 2016, dated 2021).

The test has as its target human APJ receptor (Homo sapiens (Human), UniProt P35414). Put plainly: biochemical. Type of test: biochemical. The settings on record: [35S]GTPγS binding, CHO membranes expressing human APJ receptor; read-out: Activity hAPJ SPA EC50 IP. The method in brief: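 GTPγS binding on membranes from CHO cells stably expressing FLAG-tagged human APJ, with optimized GDP, MgCl2 and NaCl; incubated 90 min at RT before imaging read-out.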
A general note: GTPγS is a poorly hydrolysed GTP analogue; its binding reports G protein activation.

The EC50 is the concentration needed to bring the measured effect to its halfway point.

Chain of human APJ receptor (P35414 whole entry): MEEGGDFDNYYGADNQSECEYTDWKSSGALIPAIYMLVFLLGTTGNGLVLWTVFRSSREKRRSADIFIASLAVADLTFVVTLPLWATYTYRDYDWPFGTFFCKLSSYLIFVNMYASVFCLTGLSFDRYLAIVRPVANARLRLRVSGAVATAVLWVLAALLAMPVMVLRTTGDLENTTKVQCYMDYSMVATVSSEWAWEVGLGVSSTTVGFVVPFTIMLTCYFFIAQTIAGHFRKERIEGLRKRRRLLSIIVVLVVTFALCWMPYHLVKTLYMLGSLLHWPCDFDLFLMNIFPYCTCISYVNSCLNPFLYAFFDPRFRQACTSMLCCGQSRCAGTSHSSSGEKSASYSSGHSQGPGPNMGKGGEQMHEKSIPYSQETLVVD

Take `COc1ncnc(OC)c1-n1c(NS(=O)(=O)[C@@H](C)[C@H](OC)c2ccc(Cl)cn2)nnc1-c1ccn(C)n1` (single isomer, unassigned) [Example 288.0]: the EC50 stood at 1.3 nM. Turning to `Cn1ccc(-c2nnc(NS(=O)(=O)[C@@H]3C[C@H](O)CN(c4ncc(F)cn4)C3)n2-c2c(F)cccc2F)n1` (single isomer, unassigned) [Example 299.0, (3R,5S)-N-(4-(2,6-difluorophenyl)-5-(1-methyl-1H-pyrazol-3-yl)-4H-1,2,4-triazol-3-yl)-1-(5-fluoro-2-pyrimidinyl)-5-hydroxy-3-piperidinesulfonamide or (3S,5R)-N-(4-(2,6-difluorophenyl)-5-(1-methyl-1H-pyrazol-3-yl)-4H-1,2,4-triazol-3-yl)-1-(5-fluoro-2-pyrimidinyl)-5-hydroxy-3-piperidinesulfonamide], the 50% effective concentration (EC50) amounted to 520 nM. With `Cn1ccc(-c2nnc(NS(=O)(=O)[C@@H]3C[C@@H](O)CN(c4ncc(F)cn4)C3)n2-c2c(F)cccc2F)n1` (single isomer, unassigned) [Example 300.0, (3R,5R)-N-(4-(2,6-difluorophenyl)-5-(1-methyl-1H-pyrazol-3-yl)-4H-1,2,4-triazol-3-yl)-1-(5-fluoro-2-pyrimidinyl)-5-hydroxy-3-piperidinesulfonamide or (3S,5R)-N-(4-(2,6-difluorophenyl)-5-(1-methyl-1H-pyrazol-3-yl)-4H-1,2,4-triazol-3-yl)-1-(5-fluoro-2-pyrimidinyl)-5-hydroxy-3-piperidinesulfonamide] the figure was 55 nM; with `COc1cnc([C@@H](OC)[C@H](C)S(=O)(=O)Nc2nnc(-c3ccn(C)n3)n2-c2c(OC)cccc2OC)cn1` (single isomer, unassigned) [Example 308.0, (1R,2S)-N-(4-(2,6-dimethoxyphenyl)-5-(1-methyl-1H-pyrazol-3-yl)-4H-1,2,4-triazol-3-yl)-1-methoxy-1-(5-methoxy-2-pyrazinyl)-2-propanesulfonamide or (1S,2R)-N-(4-(2,6-dimethoxyphenyl)-5-(1-methyl-1H-pyrazol-3-yl)-4H-1,2,4-triazol-3-yl)-1-methoxy-1-(5-methoxy-2-pyrazinyl)-2-propanesulfonamide], 0.58 nM; with `COc1cnc([C@@H](OC)[C@H](C)S(=O)(=O)Nc2nnc(-c3ccn(C)n3)n2-c2c(OC)cccc2OC)cn1` (single isomer, unassigned) [Example 309.0, (1R,2S)-N-(4-(2,6-dimethoxyphenyl)-5-(1-methyl-1H-pyrazol-3-yl)-4H-1,2,4-triazol-3-yl)-1-methoxy-1-(5-methoxy-2-pyrazinyl)-2-propanesulfonamide or (1S,2R)-N-(4-(2,6-dimethoxyphenyl)-5-(1-methyl-1H-pyrazol-3-yl)-4H-1,2,4-triazol-3-yl)-1-methoxy-1-(5-methoxy-2-pyrazinyl)-2-propanesulfonamide], 34 nM.

Regarding `COc1cccc(OC)c1-n1c(NS(=O)(=O)[C@H](C)[C@H](O)c2ncc(C)cn2)nnc1-c1nc(C)cs1` (single isomer, unassigned) [Example 314.0, (1R,2R)-N-(4-(2,6-dimethoxyphenyl)-5-(4-methylthiazol-2-yl)-4H-1,2,4-triazol-3-yl)-1-hydroxy-1-(5-methylpyrimidin-2-yl)propane-2-sulfonamide or (1S,2S)-N-(4-(2,6-dimethoxyphenyl)-5-(4-methylthiazol-2-yl)-4H-1,2,4-triazol-3-yl)-1-hydroxy-1-(5-methylpyrimidin-2-yl)propane-2-sulfonamide], the 50% effective concentration (EC50) worked out at 14 nM.

`COc1cccc(OC)c1-n1c(NS(=O)(=O)[C@H](C)[C@H](O)c2ncc(C)cn2)nnc1-c1nc(C)cs1` (single isomer, unassigned) [Example 315.0, (1R,2R)-N-(4-(2,6-dimethoxyphenyl)-5-(4-methylthiazol-2-yl)-4H-1,2,4-triazol-3-yl)-1-hydroxy-1-(5-methylpyrimidin-2-yl)propane-2-sulfonamide or (1S,2S)-N-(4-(2,6-dimethoxyphenyl)-5-(4-methylthiazol-2-yl)-4H-1,2,4-triazol-3-yl)-1-hydroxy-1-(5-methylpyrimidin-2-yl)propane-2-sulfonamide]: the EC50 turned out to be 0.68 nM. In the case of `COc1cccc(OC)c1-n1c(NS(=O)(=O)[C@H](C)[C@H](O)c2ncc(C)cn2)nnc1-c1nc(C)cs1` (single isomer, unassigned) [Example 316.0, (1R,2R)-N-(4-(2,6-dimethoxyphenyl)-5-(4-methylthiazol-2-yl)-4H-1,2,4-triazol-3-yl)-1-hydroxy-1-(5-methylpyrimidin-2-yl)propane-2-sulfonamide or (1S,2S)-N-(4-(2,6-dimethoxyphenyl)-5-(4-methylthiazol-2-yl)-4H-1,2,4-triazol-3-yl)-1-hydroxy-1-(5-methylpyrimidin-2-yl)propane-2-sulfonamide], the EC50 was 81 nM.

In the case of `COc1cccc(OC)c1-n1c(NS(=O)(=O)[C@H](C)[C@H](O)c2ncc(C)cn2)nnc1-c1nc(C)cs1` (single isomer, unassigned) [Example 317.0, (1R,2R)-N-(4-(2,6-dimethoxyphenyl)-5-(4-methylthiazol-2-yl)-4H-1,2,4-triazol-3-yl)-1-hydroxy-1-(5-methylpyrimidin-2-yl)propane-2-sulfonamide or (1S,2S)-N-(4-(2,6-dimethoxyphenyl)-5-(4-methylthiazol-2-yl)-4H-1,2,4-triazol-3-yl)-1-hydroxy-1-(5-methylpyrimidin-2-yl)propane-2-sulfonamide], the 50% effective concentration (EC50) was 6.6 nM. The value for `COc1cccc(OC)c1-n1c(NS(=O)(=O)[C@@H](C)[C@H](O)c2cn3ccccc3n2)nnc1-c1ccn(C)n1` (single isomer, unassigned) [Example 350.0, (1R,2S)-N-(4-(2,6-Dimethoxyphenyl)-5-(1-methyl-1H-pyrazol-3-yl)-4H-1,2,4-triazol-3-yl)-1-hydroxy-1-imidazo[1,2-a]pyridin-2-yl-2-propanesulfonamide or (1S,2R)-N-(4-(2,6-dimethoxyphenyl)-5-(1-methyl-1H-pyrazol-3-yl)-4H-1,2,4-triazol-3-yl)-1-hydroxy-1-imidazo[1,2-a]pyridin-2-yl-2-propanesulfonamide] was 6.1 nM; that for `CCO[C@@H](c1ncc(Cl)cn1)[C@H](C)S(=O)(=O)Nc1nnc(-c2ccn(C)n2)n1-c1c(OC)cccc1OC` (single isomer, unassigned) [Example 352.0, (1S,2S)-1-(5-chloropyrimidin-2-yl)-N-(4-(2,6-dimethoxyphenyl)-5-(1-methyl-1H-pyrazol-3-yl)-4H-1,2,4-triazol-3-yl)-1-ethoxypropane-2-sulfonamide or (1R,2R)-1-(5-chloropyrimidin-2-yl)-N-(4-(2,6-dimethoxyphenyl)-5-(1-methyl-1H-pyrazol-3-yl)-4H-1,2,4-triazol-3-yl)-1-ethoxypropane-2-sulfonamide] was 35 nM.

As to `CCO[C@@H](c1ncc(Cl)cn1)[C@H](C)S(=O)(=O)Nc1nnc(-c2ccn(C)n2)n1-c1c(OC)cccc1OC` (single isomer, unassigned) [Example 353.0, (1S,2S)-1-(5-chloropyrimidin-2-yl)-N-(4-(2,6-dimethoxyphenyl)-5-(1-methyl-1H-pyrazol-3-yl)-4H-1,2,4-triazol-3-yl)-1-ethoxypropane-2-sulfonamide or (1R,2R)-1-(5-chloropyrimidin-2-yl)-N-(4-(2,6-dimethoxyphenyl)-5-(1-methyl-1H-pyrazol-3-yl)-4H-1,2,4-triazol-3-yl)-1-ethoxypropane-2-sulfonamide], the EC50 stood at 0.22 nM. Regarding `CCO[C@@H](c1ncc(Cl)cn1)[C@@H](C)S(=O)(=O)Nc1nnc(-c2ccn(C)n2)n1-c1c(OC)cccc1OC` (single isomer, unassigned) [Example 354.0, (1S,2R)-1-(5-chloropyrimidin-2-yl)-N-(4-(2,6-dimethoxyphenyl)-5-(1-methyl-1H-pyrazol-3-yl)-4H-1,2,4-triazol-3-yl)-1-ethoxypropane-2-sulfonamide or (1R,25)-1-(5-chloropyrimidin-2-yl)-N-(4-(2,6-dimethoxyphenyl)-5-(1-methyl-1H-pyrazol-3-yl)-4H-1,2,4-triazol-3-yl)-1-ethoxypropane-2-sulfonamide], the EC50 was determined as 0.75 nM. With `COc1cccc(OC)c1-n1c(NS(=O)(=O)C[C@H](O)c2ccc(F)cc2S(C)(=O)=O)nnc1-c1ccn(C)n1` (single isomer, unassigned) [Example 370.0, (R)-N-(4-(2,6-Dimethoxyphenyl)-5-(1-methyl-1H-pyrazol-3-yl)-4H-1,2,4-triazol-3-yl)-2-(4-fluoro-2-(methylsulfonyl)phenyl)-2-hydroxyethanesulfonamide or (S)-N-(4-(2,6-dimethoxyphenyl)-5-(1-methyl-1H-pyrazol-3-yl)-4H-1,2,4-triazol-3-yl)-2-(4-fluoro-2-(methylsulfonyl)phenyl)-2-hydroxyethanesulfonamide] the figure was 3.1 nM. `COc1cccc(OC)c1-n1c(NS(=O)(=O)C[C@H](O)c2ccc(F)cc2S(C)(=O)=O)nnc1-c1ccn(C)n1` (single isomer, unassigned) [Example 371.0, (R)-N-(4-(2,6-Dimethoxyphenyl)-5-(1-methyl-1H-pyrazol-3-yl)-4H-1,2,4-triazol-3-yl)-2-(4-fluoro-2-(methylsulfonyl)phenyl)-2-hydroxyethanesulfonamide or (S)-N-(4-(2,6-dimethoxyphenyl)-5-(1-methyl-1H-pyrazol-3-yl)-4H-1,2,4-triazol-3-yl)-2-(4-fluoro-2-(methylsulfonyl)phenyl)-2-hydroxyethanesulfonamide]: the EC50 worked out at 2.2 nM. The value for `COc1cccc(OC)c1-n1c(NS(=O)(=O)C[C@H](OC)c2ccc(F)cc2S(C)(=O)=O)nnc1-c1ccn(C)n1` (single isomer, unassigned) [Example 372.0, (R)-N-(4-(2,6-Dimethoxyphenyl)-5-(1-methyl-1H-pyrazol-3-yl)-4H-1,2,4-triazol-3-yl)-2-(4-fluoro-2-(methylsulfonyl)phenyl)-2-methoxyethanesulfonamide or (S)-N-(4-(2,6-dimethoxyphenyl)-5-(1-methyl-1H-pyrazol-3-yl)-4H-1,2,4-triazol-3-yl)-2-(4-fluoro-2-(methylsulfonyl)phenyl)-2-methoxyethanesulfonamide] was 1.4 nM.
